Experimental data as given in patent publication US5621002A, “Prodrugs for enzyme mediated activation” (Behringwerke Aktiengesellschaft, priority 1993, dated 1997).

T1: antibody-β-glucuronidase fusion protein (Homo sapiens, UniProt P08236)
T1 construct: antibody part only targets
T1 sequence (P08236 23-651): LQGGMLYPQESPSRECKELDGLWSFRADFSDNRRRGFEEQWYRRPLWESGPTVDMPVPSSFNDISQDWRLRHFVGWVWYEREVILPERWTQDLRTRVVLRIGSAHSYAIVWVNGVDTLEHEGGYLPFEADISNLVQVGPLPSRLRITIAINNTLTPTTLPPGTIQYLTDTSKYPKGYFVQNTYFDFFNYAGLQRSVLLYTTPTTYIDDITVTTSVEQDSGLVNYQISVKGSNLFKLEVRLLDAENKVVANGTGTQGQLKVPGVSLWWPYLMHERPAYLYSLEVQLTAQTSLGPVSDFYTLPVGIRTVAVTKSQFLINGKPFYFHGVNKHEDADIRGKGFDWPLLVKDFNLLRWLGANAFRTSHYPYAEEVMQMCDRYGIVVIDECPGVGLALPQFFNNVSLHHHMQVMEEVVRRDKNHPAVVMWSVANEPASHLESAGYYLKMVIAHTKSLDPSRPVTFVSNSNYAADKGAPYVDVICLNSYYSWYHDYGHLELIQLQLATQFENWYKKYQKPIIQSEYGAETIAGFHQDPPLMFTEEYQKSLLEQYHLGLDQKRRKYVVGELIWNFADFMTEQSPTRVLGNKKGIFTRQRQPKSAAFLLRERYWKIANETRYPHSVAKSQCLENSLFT

B1: antibody-β-glucuronidase fusion protein (Homo sapiens) (protein)
chain: T1 sequence (P08236 23-651)
notes: antibody part only targets

Columns and labels:
[1] = biological target: T1, antibody-β-glucuronidase fusion protein; test: Km and Vmax determination, enzymatic cleavage by fusion protein monitored by HPLC; assay type: biochemical; conditions: 100 mM phosphate buffer + 1 mg/ml BSA, pH 7.2, 37° C., substrate 10-10000 μM
Procedure: (§1) Comparison of Km- and V max-values of natural and improved substrate for antibody β-glucuronidase fusion protein
(§2) For Km- and Vmax-determination 3'-N-[4-(beta-D-Glucuronyloxy)-3-nitro-benzyloxycarbonyl]-doxorubicin and prodrug A should be diluted in the range of 10-10000 μM in 100 mM phosphate buffer+1 mg/ml BSA, pH 7.2. Enzymatic cleavage should be done with constant amounts of fusion protein at 37° C. Cleavage can be monitored by HPLC analysis. Km- and Vmax-values can be calculated with the software program GraFit 2.0 (Erithacus Software Ltd.).
(§3) The HPLC apparatus consisted of an autosampler (Abimed, model 231), an automatic sample extraction system (AASP, Varian) equipped with minicartridges containing C 18 reversed phase silica gel (Analytichem), a gradient pump (Gynkotek, model 480), a fluorescence detector (Shimazdu RF 535, Excitation: 495 nm, Emission: 560 nm). Before sample injection the minicartridges were preconditioned with 2.5 ml methanol and 1.5 ml phosphate buffer, pH 6. Analytes retained on the reversed phase silica gel were then eluted by valve switching and connection of the minicartridges to the mobile phase. Chromatography was performed on reversed phase material (Nucleosil C 18, 5 μm particle size, 120 mm length, 4,5 mm I.D.) and gradient elution. Elution was done by a gradient composed of 2 components (A: 20 mM phosphate, pH 3, B: acetonitrile). […]

[2] = substrate: [H][C@]1(O[C@H]2C[C@H](NC(=O)OCc3ccc(O[C@@H]4O[C@H](C(=O)O)[C@@H](O)[C@H](O)[C@H]4O)c([N+](=O)[O-])c3)[C@H](O)[C@H](C)O2)C[C@](O)(C(=O)CO)Cc2c(O)c3c(c(O)c21)C(=O)c1c(OC)cccc1C3=O; test: as above; assay type: biochemical, human; conditions: other: 100 mM phosphate buffer + 1 mg/ml BSA, pH 7.2, 37° C., substrate 10-10000 μM
Procedure: as §1, §2, §3

Molecule	Km [1]	Vmax [1]	Km [2]	Vmax [2]
COc1cccc2c1C(=O)c1c(O)c3c(c(O)c1C2=O)C[C@@](O)(C(=O)CO)C[C@@H]3O[C@H]1C[C@H](NC(=O)OCc2ccc(O[C@@H]3O[C@H]([C@H](O)C(=O)O)[C@H](O)[C@H]3O)c([N+](=O)[O-])c2)[C@H](O)[C@H](C)O1 [Prodrug A]	< 500 µM	~ 0.635 nmol/μg/min	–	–
B1	–	–	1300 µM	0.635 nmol/µg/min
